# According to PubChem BioAssay AID330 (DTP/NCI, 2004):
# Values joined by “and” are separate entries in the source; they are usually repeats but may differ in a detail not shown here. Identical values can stand only once. Toxic doses and inconclusive results are not listed.
# Test system: P388 leukemia ip, CD2F1 mice, survival T/C
# Assay: NCI In Vivo Anticancer Drug Screen. Data for tumor model P388 Leukemia (intraperitoneal) in CD2F1 (CDF1) mice
# Settings: endpoint: median survival time, higher = longer survival
# Method in brief: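 Mice carrying the transplanted tumor received test compound or vehicle. Survival was recorded in each group, and the value is the treated-group measurement divided by that of the vehicle-treated control group.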
# [1] = dose: 50.0 mg/kg/injection, schedule: Q01DX005 (ip), vehicle: Klucel (hydroxypropylcellulose) (HPC)
# [2] = dose: 100.0 mg/kg/injection, schedule: Q01DX005 (ip), vehicle: Klucel (hydroxypropylcellulose) (HPC)
# [3] = dose: 200.0 mg/kg/injection, schedule: Q01DX005 (ip), vehicle: Klucel (hydroxypropylcellulose) (HPC)
compound,measurement,setting,value
Cc1n[nH]c(=O)n2c1nc1ccccc12,T/C,"dose: 60.0 mg/kg/injection, schedule: Q01DX005 (ip), vehicle: Klucel (hydroxypropylcellulose) (HPC)",95 % of control
same,T/C,"dose: 120.0 mg/kg/injection, schedule: Q01DX005 (ip), vehicle: Klucel (hydroxypropylcellulose) (HPC)",95 % of control
same,T/C,"dose: 240.0 mg/kg/injection, schedule: Q01DX005 (ip), vehicle: Klucel (hydroxypropylcellulose) (HPC)",92 % of control
Cc1ccc(S(=O)(=O)OC2CN(S(=O)(=O)c3ccc(C)cc3)C2)cc1,T/C,[1],100 % of control
same,T/C,[2],91 % of control
same,T/C,[3],90 % of control
CCOc1cccc(C=N)c1O,T/C,"dose: 60.0 mg/kg/injection, schedule: Q01DX005 (ip), vehicle: saline with Tween-80",111 % of control
same,T/C,"dose: 120.0 mg/kg/injection, schedule: Q01DX005 (ip), vehicle: saline with Tween-80",105 % of control
O=C(O)c1cccc(-c2nn[nH]n2)c1,T/C,[1],93 % of control
same,T/C,[2],90 % of control
same,T/C,[3],102 % of control
CN=C(NC)c1ccc(NC(=O)c2ccc(C(=O)Nc3ccc(C(=NC)NC)cc3)c(Cl)c2)cc1,T/C,"dose: 18.0 mg/kg/injection, schedule: Q01DX010 (ip), vehicle: saline",218 % of control
same,T/C,"dose: 27.0 mg/kg/injection, schedule: Q01DX010 (ip), vehicle: saline",254 % of control
same,T/C,"dose: 40.0 mg/kg/injection, schedule: Q01DX010 (ip), vehicle: saline",209 % of control
same,T/C,"dose: 60.0 mg/kg/injection, schedule: Q01DX010 (ip), vehicle: saline",154 % of control
O=C(N/N=C/c1ccccc1F)c1ccncc1,T/C,"dose: 50.0 mg/kg/injection, schedule: Q01DX009 (ip), vehicle: saline with Tween-80",98 % of control
same,T/C,"dose: 100.0 mg/kg/injection, schedule: Q01DX009 (ip), vehicle: saline with Tween-80",97 % of control
same,T/C,"dose: 200.0 mg/kg/injection, schedule: Q01DX009 (ip), vehicle: saline with Tween-80",104 % of control
CCN(CC)CCCC(C)Nc1cc(OC)c2nc(C)ccc2c1OC (stereo not given),T/C,"dose: 0.78 mg/kg/injection, schedule: Q01DX009 (ip), vehicle: saline",97 % of control
same,T/C,"dose: 1.56 mg/kg/injection, schedule: Q01DX009 (ip), vehicle: saline",100 % of control
same,T/C,"dose: 3.12 mg/kg/injection, schedule: Q01DX009 (ip), vehicle: saline",99 % of control and 97 % of control
Cc1cccc(NC(=O)N(C(C)C)C(C)C)c1,T/C,"dose: 60.0 mg/kg/injection, schedule: Q01DX005 (ip), vehicle: Klucel + Tween-80",100 % of control
same,T/C,"dose: 120.0 mg/kg/injection, schedule: Q01DX005 (ip), vehicle: Klucel + Tween-80",97 % of control
same,T/C,"dose: 240.0 mg/kg/injection, schedule: Q01DX005 (ip), vehicle: Klucel + Tween-80",89 % of control
COc1ccc(N=NNc2ccc(OC)cc2)cc1,T/C,"dose: 6.25 mg/kg/injection, schedule: Q01DX009 (ip), vehicle: saline with Tween-80",104 % of control
same,T/C,"dose: 6.25 mg/kg/injection, schedule: Q04DX003 (ip), vehicle: saline with Tween-80",95 % of control
same,T/C,"dose: 12.5 mg/kg/injection, schedule: Q01DX009 (ip), vehicle: saline with Tween-80",104 % of control
same,T/C,"dose: 12.5 mg/kg/injection, schedule: Q04DX003 (ip), vehicle: saline with Tween-80",108 % of control
same,T/C,"dose: 25.0 mg/kg/injection, schedule: Q04DX003 (ip), vehicle: saline with Tween-80",116 % of control
C=C1C(=O)OC2C1C(OC(=O)/C(C)=C/C)CC1(C)C(=O)CCC(=C)C21 (stereo not given),T/C,"dose: 12.5 mg/kg/injection, schedule: Q01DX005 (ip), vehicle: Klucel (hydroxypropylcellulose) (HPC)",110 % of control
same,T/C,"dose: 25.0 mg/kg/injection, schedule: Q01DX005 (ip), vehicle: Klucel (hydroxypropylcellulose) (HPC)",104 % of control and 106 % of control and 107 % of control
same,T/C,[1],106 % of control and 109 % of control and 112 % of control
same,T/C,[2],109 % of control
same,T/C,"dose: 150.0 mg/kg/injection, schedule: Q01DX005 (ip), vehicle: Klucel (hydroxypropylcellulose) (HPC)",107 % of control
same,T/C,[3],108 % of control and 111 % of control
CCCCCCCCCCCCCCCC(=O)N(C(C)CCCN(CC)CC)C(C)CCCN(CC)CC (stereo not given),T/C,"dose: 1.56 mg/kg/injection, schedule: Q01DX009 (ip), vehicle: water",98 % of control
same,T/C,"dose: 3.13 mg/kg/injection, schedule: Q01DX009 (ip), vehicle: water",100 % of control
same,T/C,"dose: 6.25 mg/kg/injection, schedule: Q01DX009 (ip), vehicle: water",99 % of control
same,T/C,"dose: 12.5 mg/kg/injection, schedule: Q01DX009 (ip), vehicle: water",92 % of control
CC(=O)NC(CSC(c1ccccc1)c1ccccc1)C(C)=O (stereo not given),T/C,"dose: 100.0 mg/kg/injection, schedule: Q04DX003 (ip), vehicle: saline with Tween-80",103 % of control
same,T/C,"dose: 200.0 mg/kg/injection, schedule: Q04DX003 (ip), vehicle: saline with Tween-80",106 % of control
same,T/C,"dose: 400.0 mg/kg/injection, schedule: Q04DX003 (ip), vehicle: saline with Tween-80",113 % of control
CCOC(=O)c1conc1C,T/C,"dose: 12.5 mg/kg/injection, schedule: Q01DX009 (ip), vehicle: saline",112 % of control
same,T/C,"dose: 25.0 mg/kg/injection, schedule: Q01DX009 (ip), vehicle: saline",106 % of control
same,T/C,"dose: 50.0 mg/kg/injection, schedule: Q01DX009 (ip), vehicle: saline",101 % of control and 103 % of control
